The nature of assay [1]: (§1) Antiproliferative activity against human MIAPaCa2 cells assessed as growth inhibition after 48 hrs by SRB assay. Format: functional. The note with it: MIA PaCa-2, 48 h. A general note: Sulforhodamine B stains cellular protein and so reports cell mass.
The subject of the next assay is MCF7. As to the kind of experiment: Antiproliferative activity against human MCF7 cells assessed as growth inhibition after 48 hrs by SRB assay. Format: functional. The conditions noted are these: MCF7, 48 h.
Assay [2] concerns HeLa. As to the kind of experiment: Antiproliferative activity against human HeLa cells assessed as growth inhibition after 48 hrs by SRB assay. Format: functional.
For the next assay, the target named is Tubulin (Bos taurus, UniProt Q6B856+Q862L2+Q862F3). As to the kind of experiment: Inhibition of bovine brain tubulin polymerization by fluorescence analysis.
The subject of assay [3] is HeLa. The assay is described as follows: Antimitotic activity against human HeLa cells assessed as accumulation at G2/M phase at 5 uM after 24 hrs by PI staining based flow cytometry (reference value: 18.35%). It is filed as functional. Background: Flow cytometry measures light scatter and fluorescence of single cells or particles in a stream.
The subject of another assay is MIA PaCa-2. Described as §1. Format: functional.
Assay [4] concerns HeLa. As to the kind of experiment: Induction of microtubule depolymerization in human HeLa cells at 5 uM after 24 hrs by DAPI staining. It is filed as cell-based.
Assay [5] deals with HeLa. The assay is described as follows: Induction of microtubule destabilization in human HeLa cells at 5 uM after 24 hrs by immunoblot analysis. It is filed as cell-based. On the technique in general: Immunoblotting shows a protein as a band on a membrane.

The source made the active and inactive calls. The calls are words filed in the database; no cut-off is given here. A value given as a limit tells only on which side of the number the result lay.

Usually GI50 stands for the concentration that inhibits growth by half. The term IC50 denotes the concentration needed to halve the response being measured. A lower IC50 goes with inhibition by little substance. As to `COC(=O)[C@H]1C(c2nc3ccccc3[nH]2)=Cc2cc3c(cc2[C@H]1c1cc(OC)c(OC)c(OC)c1)OCO3`, the GI50 is 1200 nM in assay [1], 200 nM in the assay with MCF7 and 200 nM in the assay on HeLa [2]. In addition, on Tubulin, the IC50 was 1290 nM. The Activity in the assay with HeLa [3] is 56.05%.
Consider `COC(=O)[C@H]1C(c2nc3cc(C(F)(F)F)cc(Br)c3[nH]2)=Cc2cc3c(cc2[C@H]1c1cc(OC)c(OC)c(OC)c1)OCO3`, for which the results for the GI50 (in assay [1]; with MCF7; in the assay with HeLa [2]) were 3100 nM, 2100 nM and 6400 nM, respectively.
As to `COC(=O)[C@H]1C(c2nc3ccc(C)cc3[nH]2)=Cc2cc3c(cc2[C@H]1c1cc(OC)c(OC)c(OC)c1)OCO3`, the figures for the GI50 (in assay [1]; with MCF7; with HeLa [2]) were 18100 nM, 3070 nM and 2800 nM, respectively.
On to `COC(=O)[C@H]1C(c2nc3ccc(C(F)(F)F)cc3[nH]2)=Cc2cc3c(cc2[C@H]1c1cc(OC)c(OC)c(OC)c1)OCO3`, for which the GI50 result in the assay with MIA PaCa-2 was “inactive”. The GI50 with MCF7 was 4800 nM; in the assay on HeLa [2] it was 5080 nM.
Turning to `COC(=O)[C@H]1C(c2nc3ccc(Br)cc3[nH]2)=Cc2cc3c(cc2[C@H]1c1cc(OC)c(OC)c(OC)c1)OCO3`, the GI50 in assay [1] was < 10 nM; with MCF7 it was 540 nM; in the assay with HeLa [2] it was 210 nM. This compound came in with an IC50 against Tubulin of 860 nM. The Activity in the assay on HeLa [3] turned out to be 73.96%. For the same compound, the result with HeLa [4] and with HeLa [5] was Active.
As to `COC(=O)[C@H]1C(C=O)=Cc2cc3c(cc2[C@H]1c1cc(OC)c(OC)c(OC)c1)OCO3`, the GI50 in assay [1] was 730 nM; in the assay on MCF7, 910 nM; with HeLa [2], 690 nM.
For `COC(=O)[C@H]1C(c2nc3ccc(Cl)cc3[nH]2)=Cc2cc3c(cc2[C@H]1c1cc(OC)c(OC)c(OC)c1)OCO3` the same measures were 1300 nM, 2090 nM and 2160 nM.
As to `COC(=O)Nc1nc2cc(C(=O)c3cccs3)ccc2[nH]1` [NOCODAZOLE], the GI50 is 950 nM in assay [1], 940 nM in the assay on MCF7 and 810 nM in the assay on HeLa [2].
For `COC(=O)[C@H]1C(c2nc3cc(C)c(C)cc3[nH]2)=Cc2cc3c(cc2[C@H]1c1cc(OC)c(OC)c(OC)c1)OCO3` the same measures were 1500 nM, 160 nM and 3600 nM.
In the case of `COC(=O)[C@H]1C(c2nc3ccc(F)c(Cl)c3[nH]2)=Cc2cc3c(cc2[C@H]1c1cc(OC)c(OC)c(OC)c1)OCO3`, the GI50 result in the assay on MIA PaCa-2 is “inactive”. In addition, the GI50 amounted to 2300 nM with MCF7 and 24200 nM with HeLa [2].
Turning to `COC(=O)[C@H]1C(c2nc3cc(Cl)c(Cl)cc3[nH]2)=Cc2cc3c(cc2[C@H]1c1cc(OC)c(OC)c(OC)c1)OCO3`, the 50% growth inhibitory concentration (GI50) in assay [1] came to 3200 nM; in the assay on MCF7, 580 nM; with HeLa [2] it was 19700 nM.
On to `COc1cc([C@@H]2c3cc4c(cc3[C@@H](O[C@@H]3O[C@@H]5CO[C@@H](C)O[C@H]5[C@H](O)[C@H]3O)[C@H]3COC(=O)[C@H]23)OCO4)cc(OC)c1O` [ETOPOSIDE], for which the GI50 in assay [1] came to 1100 nM; in the assay on MCF7 it was 250 nM; in the assay with HeLa [2] it was 620 nM.
On to `COC(=O)[C@H]1C(c2nc3ccc(F)cc3[nH]2)=Cc2cc3c(cc2[C@H]1c1cc(OC)c(OC)c(OC)c1)OCO3`, for which the GI50 in assay [1] worked out at 3900 nM; in the assay with MCF7, 20 nM; with HeLa [2] it was 4300 nM.
In the case of `COc1cc([C@@H]2c3cc4c(cc3[C@H](O)[C@H]3COC(=O)[C@H]23)OCO4)cc(OC)c1OC` [PODOFILOX], the values for the GI50 (in assay [1]; in the assay on MCF7; in the assay with HeLa [2]) were 510 nM, 310 nM and 740 nM, respectively.
Turning to `COC(=O)[C@H]1C(c2nc3ccc(OC)cc3[nH]2)=Cc2cc3c(cc2[C@H]1c1cc(OC)c(OC)c(OC)c1)OCO3`, the GI50 in assay [1] was determined as 1600 nM; in the assay on MCF7, 2100 nM; in the assay on HeLa [2], 1040 nM. In addition, on Tubulin, the IC50 was found to be 910 nM. Moreover, in the assay with HeLa [3], the Activity was found to be 68.91%. In addition, the result with HeLa [4] and in the assay on HeLa [5] was Active.
With `COC(=O)[C@H]1C(c2nc3cc4ccccc4cc3[nH]2)=Cc2cc3c(cc2[C@H]1c1cc(OC)c(OC)c(OC)c1)OCO3`, the 50% growth inhibitory concentration (GI50) in assay [1] worked out at 2560 nM; in the assay with MCF7, 1200 nM; with HeLa [2] it was 3800 nM.

The values are drawn from ChEMBL document CHEMBL3352523, “Synthesis and biological evaluation of podophyllotoxin congeners as tubulin polymerization inhibitors” (Bioorg Med Chem, 2014).
